Measurements published in patent US7671061B2, “Methods and compositions for treating pain” (Hydra Biosciences, Inc., priority 2005, dated 2010).

The compounds below were run against T1, hTRPA1 (Homo sapiens, UniProt O75762, K186N) (assay: High throughput Ca2+ fluorescence (Fluo4) assay, AITC stimulation). Conditions: Table 2; read-out: hTRPA1 Fluor IC50.
T1 construct: expressed in transfected cells; host or cells: HEK293/TREx (Invitrogen), induced with tetracycline
T1 sequence (O75762 whole entry K186N): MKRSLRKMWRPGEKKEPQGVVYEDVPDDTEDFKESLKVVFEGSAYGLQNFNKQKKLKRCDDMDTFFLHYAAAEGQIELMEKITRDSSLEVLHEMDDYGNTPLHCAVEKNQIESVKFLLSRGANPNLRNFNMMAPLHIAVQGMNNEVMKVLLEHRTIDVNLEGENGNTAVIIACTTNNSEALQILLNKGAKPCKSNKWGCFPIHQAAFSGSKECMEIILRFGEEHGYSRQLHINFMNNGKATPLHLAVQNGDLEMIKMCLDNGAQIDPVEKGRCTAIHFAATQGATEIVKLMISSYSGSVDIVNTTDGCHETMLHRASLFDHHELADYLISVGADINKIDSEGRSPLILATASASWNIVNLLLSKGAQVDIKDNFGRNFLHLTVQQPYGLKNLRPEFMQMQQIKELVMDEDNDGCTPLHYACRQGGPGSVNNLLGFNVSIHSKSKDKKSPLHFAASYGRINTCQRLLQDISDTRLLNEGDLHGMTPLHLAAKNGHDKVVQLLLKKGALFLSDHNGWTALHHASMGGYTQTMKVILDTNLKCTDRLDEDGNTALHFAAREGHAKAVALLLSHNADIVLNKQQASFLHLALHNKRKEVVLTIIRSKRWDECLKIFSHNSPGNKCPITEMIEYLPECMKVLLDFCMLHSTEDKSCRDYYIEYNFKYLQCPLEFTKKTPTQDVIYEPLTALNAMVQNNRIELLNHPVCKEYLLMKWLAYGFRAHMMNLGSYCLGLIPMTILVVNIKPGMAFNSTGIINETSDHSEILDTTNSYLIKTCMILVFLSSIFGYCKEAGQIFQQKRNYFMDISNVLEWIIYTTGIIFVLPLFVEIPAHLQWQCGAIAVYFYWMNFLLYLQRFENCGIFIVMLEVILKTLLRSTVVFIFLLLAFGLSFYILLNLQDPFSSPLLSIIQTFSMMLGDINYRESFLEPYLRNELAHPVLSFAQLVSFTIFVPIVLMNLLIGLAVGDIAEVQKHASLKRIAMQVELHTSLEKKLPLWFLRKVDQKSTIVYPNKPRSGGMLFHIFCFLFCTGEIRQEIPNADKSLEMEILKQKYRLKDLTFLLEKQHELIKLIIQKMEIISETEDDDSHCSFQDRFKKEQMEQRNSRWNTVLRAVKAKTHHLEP
Type: cell-based
How it was run: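 Tetracycline-induced HEK293/TREx cells loaded with 1 μM Fluo4/AM for 60 min at room temperature. Compound added for 2 min after a 4-frame baseline, then AITC; fluorescence followed ~3 min.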
Compound `COC(=O)c1ccc(C)c(NC(=O)Cn2cnc3c2c(=O)n(C)c(=O)n3C)c1` [Compound 346] has an IC50 of at least 30 µM.
With `CC1CCCC(NC(=O)Cn2cnc3c2c(=O)n(C)c(=O)n3C)C1C` (centres unmarked) [Compound 349] the IC50 was over 10 µM.
`Cn1c(=O)c2c(ncn2CC(=O)Nc2ccccc2SCc2ccccc2)n(C)c1=O` [Compound 351] showed an IC50 of over 10 µM.
In the case of `Cn1c(=O)c2c(ncn2CC(=O)NC(c2ccccc2)c2cccs2)n(C)c1=O` (centres unmarked) [Compound 352], the IC50 is reported as over 10 µM.
For `Cc1nc(-c2ccc(CCNC(=O)Cn3cnc4c3c(=O)n(C)c(=O)n4C)cc2)cs1` [Compound 353], the IC50 was at most 5 µM.
For `Cn1c(=O)c2c(ncn2CC(=O)Nc2ccc(N3CCCCCC3)cc2)n(C)c1=O` [Compound 354], the IC50 was at most 5 µM.
Compound `Cc1cccc(NC(=O)c2ccccc2NC(=O)Cn2cnc3c2c(=O)n(C)c(=O)n3C)c1` [Compound 355] has an IC50 of at least 20 µM.
With `Cc1c(C#N)c(NC(=O)Cn2cnc3c2c(=O)n(C)c(=O)n3C)n(Cc2ccccc2)c1C` [Compound 356] the IC50 was over 10 µM.
Work on `Cn1c(=O)c2c(ncn2CC(=O)NC(CN2CCOCC2)c2ccccc2)n(C)c1=O` (centres unmarked) [Compound 357] yielded an IC50 of over 10 µM.
In the case of `Cc1ccccc1NC(=O)Cn1cnc2c1c(=O)n(C)c(=O)n2C` [Compound 358], the IC50 is reported as over 10 µM.
`CCc1cccc(C)c1NC(=O)Cn1cnc2c1c(=O)n(C)c(=O)n2C` [Compound 359] was tested, and the IC50 was over 10 µM.
Work on `CC(=O)c1ccc(NC(=O)Cn2cnc3c2c(=O)n(C)c(=O)n3C)cc1` [Compound 360] yielded an IC50 of at most 10 µM.
In the case of `COc1ccccc1NC(=O)Cn1cnc2c1c(=O)n(C)c(=O)n2C` [Compound 361], the IC50 is reported as over 10 µM.
Work on `CCOC(=O)c1ccccc1NC(=O)Cn1cnc2c1c(=O)n(C)c(=O)n2C` [Compound 362] yielded an IC50 of over 10 µM.
Compound `COC(=O)c1ccc(NC(=O)Cn2cnc3c2c(=O)n(C)c(=O)n3C)cc1` [Compound 363] has an IC50 of at most 10 µM.
Work on `COc1ccc(CNC(=O)Cn2cnc3c2c(=O)n(C)c(=O)n3C)cc1` [Compound 364] yielded an IC50 of over 10 µM.
Compound `COC(=O)c1ccccc1NC(=O)Cn1cnc2c1c(=O)n(C)c(=O)n2C` [Compound 365] has an IC50 of over 10 µM.
Work on `CCOC(=O)c1ccc(NC(=O)Cn2cnc3c2c(=O)n(C)c(=O)n3C)cc1` [Compound 366] yielded an IC50 of at most 5 µM.
`Cn1c(=O)c2c(ncn2CC(=O)Nc2cccnc2)n(C)c1=O` [Compound 367] was tested, and the IC50 was over 10 µM.
`Cn1c(=O)c2c(ncn2CC(=O)NCc2ccco2)n(C)c1=O` [Compound 368] showed an IC50 of over 10 µM.
`Cn1c(=O)c2c(ncn2CC(=O)Nc2ccccn2)n(C)c1=O` [Compound 369] showed an IC50 of over 10 µM.
Work on `Cc1ccnc(NC(=O)Cn2cnc3c2c(=O)n(C)c(=O)n3C)c1` [Compound 370] yielded an IC50 of over 10 µM.
With `Cc1ccc(NC(=O)Cn2cnc3c2c(=O)n(C)c(=O)n3C)nc1` [Compound 372] the IC50 was at least 30 µM.
`COc1ccc(C)cc1NC(=O)Cn1cnc2c1c(=O)n(C)c(=O)n2C` [Compound 373] was tested, and the IC50 was over 10 µM.
`Cc1ccc(Cl)cc1NC(=O)Cn1cnc2c1c(=O)n(C)c(=O)n2C` [Compound 374] showed an IC50 of at least 20 µM.
Work on `Cc1cc(C)c(NC(=O)Cn2cnc3c2c(=O)n(C)c(=O)n3C)c(C)c1` [Compound 375] yielded an IC50 of over 10 µM.
Work on `CCCC(C)NC(=O)Cn1cnc2c1c(=O)n(C)c(=O)n2C` (centres unmarked) [Compound 376] yielded an IC50 of over 10 µM.
`Cn1c(=O)c2c(ncn2CC(=O)NCc2ccc3c(c2)OCO3)n(C)c1=O` [Compound 377] gave an IC50 of over 10 µM.
With `COC(=O)C(CC(C)C)NC(=O)Cn1cnc2c1c(=O)n(C)c(=O)n2C` (centres unmarked) [Compound 378] the IC50 was over 10 µM.
`CC(CCc1ccccc1)NC(=O)Cn1cnc2c1c(=O)n(C)c(=O)n2C` (centres unmarked) [Compound 379] showed an IC50 of over 10 µM.
Compound `CC(=O)c1cccc(NC(=O)Cn2cnc3c2c(=O)n(C)c(=O)n3C)c1` [Compound 380] has an IC50 of over 10 µM.
With `CCc1sc(NC(=O)Cn2cnc3c2c(=O)n(C)c(=O)n3C)nc1-c1ccccc1` [Compound 381] the IC50 was at most 10 µM.
For `CCC(C)(C)NC(=O)Cn1cnc2c1c(=O)n(C)c(=O)n2C` [Compound 382], the IC50 was over 10 µM.
`CCc1cccc(CC)c1NC(=O)Cn1cnc2c1c(=O)n(C)c(=O)n2C` [Compound 383] showed an IC50 of over 10 µM.
With `Cn1c(=O)c2c(ncn2CC(=O)Nc2ccccc2Sc2ccccc2)n(C)c1=O` [Compound 384] the IC50 was at most 10 µM.
